Assay results published in patent publication US9776979B2, “EBI2 modulators” (Sanford-Burnham Medical Research Institute, priority 2013, dated 2017).

molecular target: EBI2 (Homo sapiens, UniProt P32249); assay: Cell-based luminescent assay (EBI2 modulation); details: cell-based luminescence; 7a,25-OHC final assay concentration 80 nM; 60 minutes incubation; read-out: IC50
In short: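 Cells plated overnight at 37° C, then exposed to compound at 4-5 uM final with 80 nM 7a,25-OHC agonist for 60 min at 37° C. Luminescence read after 60 min detection at 25° C in the dark; values normalized to neutral and stimulator controls and plate-pattern corrected.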

EBI2, sequence (P32249 whole entry): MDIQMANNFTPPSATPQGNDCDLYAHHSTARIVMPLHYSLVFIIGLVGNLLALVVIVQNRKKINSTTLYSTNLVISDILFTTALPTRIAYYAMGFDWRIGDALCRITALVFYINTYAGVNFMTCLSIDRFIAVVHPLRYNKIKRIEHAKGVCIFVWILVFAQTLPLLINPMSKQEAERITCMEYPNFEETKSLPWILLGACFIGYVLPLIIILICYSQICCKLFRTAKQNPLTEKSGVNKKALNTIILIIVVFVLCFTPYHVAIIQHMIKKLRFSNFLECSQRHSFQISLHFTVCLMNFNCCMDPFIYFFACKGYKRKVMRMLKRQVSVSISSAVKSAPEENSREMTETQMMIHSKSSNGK

How did the IC50 turn out when `O=C(/C=C/c1ccc(Br)cc1)N1CCN(Cc2ccc(Cl)cc2C(F)(F)F)CC1` [Compound C91, (2E)-3-(4-bromophenyl)-1-(4-{[4-chloro-2-(trifluoromethyl)phenyl]methyl}piperazinyl)prop-2-en-1-one] was run?
Its IC50 is under 100 nM.

Which IC50 does the source give for `O=C(C#Cc1cccc(Cl)c1)N1CCN(C(c2ccccc2)c2ccccc2)CC1` [Compound C92, 1-[4-(diphenylmethyl)piperazinyl]-3-(3-chlorophenyl)prop-2-yn-1-one] here?
The IC50 was under 100 nM.

How did the IC50 turn out when `O=C(/C=C/c1ccc(F)cc1)N1CCN(S(=O)(=O)/C=C/c2ccccc2)CC1` [Compound C95] was run?
The IC50 was under 100 nM.

`O=C(/C=C/c1ccc(F)cc1)N1CCN(S(=O)(=O)c2ccc(Cl)cc2)CC1` [Compound C96, (2E)-1-{4-[(4-chlorophenyl)sulfonyl]piperazinyl}-3-(4-fluorophenyl)prop-2-en-1-one] was tested. Which IC50 did it give?
Its IC50 is under 100 nM.

`COc1ccc2[nH]c(C(=O)N3CCN(C(c4ccccc4)c4ccccc4)CC3)cc2c1` [Compound C97, 4-(diphenylmethyl)piperazinyl 5-methoxyindol-2-yl ketone] was tested. Which IC50 did it give?
Its IC50 is under 100 nM.

How did the IC50 turn out when `CCCCC(=O)N1CCN(C(=O)/C=C/c2ccc(Br)cc2)CC1` [Compound C98, (2E)-3-(4-bromophenyl)-1-(4-pentanoylpiperazinyl)prop-2-en-1-one] was run?
The IC50 was under 100 nM.

For `O=C(/C=C/c1ccccc1)N1CCN(C(=O)/C=C/c2ccccc2)CC1` [Compound C99, (2E)-1-[4-((2E)-3-phenylprop-2-enoyl)piperazinyl]-3-phenylprop-2-en-1-one], which IC50 is on record?
Its IC50 is under 100 nM.

Which IC50 does the source give for `O=C(/C=C/c1ccc(F)cc1)N1CCN(S(=O)(=O)c2ccccc2Br)CC1` [Compound C100, (2E)-1-{4-[(2-bromophenyl)sulfonyl]piperazinyl}-3-(4-fluorophenyl)prop-2-en-1-one] here?
The IC50 was under 100 nM.

For `N#Cc1ccc(C(=O)N2CCN(C(=O)c3cc4cc(C(F)(F)F)ccc4[nH]3)CC2)cc1` [Compound C102, 4-[(4-{[5-(trifluoromethyl)indol-2-yl]carbonyl}piperazinyl)carbonyl]benzenecarbonitrile], which IC50 is on record?
Its IC50 is under 100 nM.

`CC(C)c1ccc(CN2CCN(C(=O)/C=C/c3ccc(Br)cc3)CC2)cc1` [Compound C103, (2E)-3-(4-bromophenyl)-1-(4-{[4-(methylethyl)phenyl]methyl}piperazinyl)prop-2-en-1-one] was tested. Which IC50 did it give?
Its IC50 is under 100 nM.

Which IC50 does the source give for `O=C(c1cc2ccc(Cl)cc2[nH]1)N1CCN(C(c2ccccc2)c2ccccc2)CC1` [Compound C104, 4-(diphenylmethyl)piperazinyl 6-chloroindol-2-yl ketone] here?
The IC50 was under 100 nM.

Which IC50 does the source give for `Cc1ccc2c(c1)cc(C(=O)N1CCN(C(c3ccccc3)c3ccccc3)CC1)n2C` [Compound C105, 1,5-dimethylindol-2-yl 4-(diphenylmethyl)piperazinyl ketone] here?
Its IC50 is under 100 nM.

With `O=C(/C=C/c1ccc(F)c(F)c1)N1CCN(C(c2ccccc2)c2ccccc2)CC1` [Compound C106, (2E)-3-(3,4-difluorophenyl)-1-[4-(diphenylmethyl)piperazinyl]prop-2-en-1-one] as the molecule, how does the IC50 read?
Its IC50 is under 100 nM.

With `Cc1cc(C)cc(CN2CCN(C(=O)/C=C/c3ccc(Br)cc3)CC2)c1` [Compound C109, (2E)-1-{4-[(3,5-dimethylphenyl)methyl]piperazinyl}-3-(4-bromophenyl)prop-2-en-1-one] as the molecule, how does the IC50 read?
Its IC50 is under 100 nM.

With `O=C(c1ccc2ncccc2c1)N1CCN(C(c2ccccc2)c2ccccc2)CC1` [Compound C110, 4-(diphenylmethyl)piperazinyl 6-quinolyl ketone] as the molecule, how does the IC50 read?
The IC50 was under 100 nM.

How did the IC50 turn out when `Cc1ccc2[nH]c(C(=O)N3CCN(Cc4ccc5c(c4)OCO5)CC3)cc2c1` [Compound C111, 4-(2H-benzo[d]1,3-dioxolan-5-ylmethyl)piperazinyl 5-methylindol-2-yl ketone] was run?
Its IC50 is under 100 nM.

For `O=C(C#Cc1ccc2c(c1)OCO2)C1CCN(C(=O)c2ccc(F)cc2)CC1` [Compound C112, 3-(2H-benzo[3,4-d]1,3-dioxolen-5-yl)-1-{1-[(4-fluorophenyl)carbonyl](4-piperidyl)}prop-2-yn-1-one], which IC50 is on record?
The IC50 was under 100 nM.

With `O=C(/C=C/c1ccccc1F)N1CCN(C(c2ccccc2)c2ccccc2)CC1` [Compound C113, (2E)-1-[4-(diphenylmethyl)piperazinyl]-3-(2-fluorophenyl)prop-2-en-1-one] as the molecule, how does the IC50 read?
Its IC50 is under 100 nM.

With `O=C(C#Cc1ccc2c(c1)OCO2)N1CCN(C(=O)c2ccc(Cl)cc2)CC1` [Compound C114, 3-(2H-benzo[3,4-d]1,3-dioxolen-5-yl)-1-{4-[(4-chlorophenyl)carbonyl]piperazinyl}prop-2-yn-1-one] as the molecule, how does the IC50 read?
The IC50 was under 100 nM.

For `O=C(c1ccc(I)cc1)N1CCN(C(=O)c2cc3cc(Cl)ccc3[nH]2)CC1` [Compound C115, 5-chloroindol-2-yl 4-[(4-iodophenyl)carbonyl]piperazinyl ketone], which IC50 is on record?
Its IC50 is under 100 nM.

With `O=C(C#Cc1ccccc1)N1CCN(C(=O)c2ccc(F)cc2)CC1` [Compound C116, 1-{4-[(4-fluorophenyl)carbonyl]piperazinyl}-3-phenylprop-2-yn-1-one] as the molecule, how does the IC50 read?
Its IC50 is under 100 nM.

For `O=C(C#Cc1cccc(Cl)c1)N1CCN(C(=O)c2ccc(C(F)(F)F)cc2)CC1` [Compound C117, 3-(3-chlorophenyl)-1-(4-{[4-(trifluoromethyl)phenyl]carbonyl}piperazinyl)prop-2-yn-1-one], which IC50 is on record?
The IC50 was under 100 nM.

For `CC(C)CC(=O)N1CCN(C(=O)/C=C/c2ccc(Br)cc2)CC1` [Compound C118, (2E)-3-(4-bromophenyl)-1-[4-(3-methylbutanoyl)piperazinyl]prop-2-en-1-one], which IC50 is on record?
The IC50 was under 100 nM.

With `O=C(c1ccc(F)cc1)N1CCN(C(=O)c2cc3cc(Cl)ccc3[nH]2)CC1` [Compound C119, 5-chloroindol-2-yl 4-[(4-fluorophenyl)carbonyl]piperazinyl ketone] as the molecule, how does the IC50 read?
The IC50 was under 100 nM.

`O=C(C#Cc1ccc2c(c1)OCO2)N1CCN(C(=O)c2ccc(Br)cc2)CC1` [Compound C120, 3-(2H-benzo[3,4-d]1,3-dioxolen-5-yl)-1-{4-[(4-bromophenyl)carbonyl]piperazinyl}prop-2-yn-1-one] was tested. Which IC50 did it give?
Its IC50 is under 100 nM.

`Cc1ccc(C#CC(=O)N2CCN(Cc3ccc(F)cc3)CC2)cc1` [Compound C122, 1-{4-[(4-fluorophenyl)methyl]piperazinyl}-3-(4-methylphenyl)prop-2-yn-1-one] was tested. Which IC50 did it give?
The IC50 was under 100 nM.

`O=C(c1cc2ccccc2s1)N1CCN(C(c2ccccc2)c2ccccc2)CC1` [Compound C123, benzo[b]thiophen-2-yl 4-(diphenylmethyl)piperazinyl ketone] was tested. Which IC50 did it give?
Its IC50 is under 100 nM.

With `Cc1ccc(S(=O)(=O)N2CCN(C(=O)/C=C/c3ccc(F)cc3)CC2)cc1` [Compound C124, (2E)-3-(4-fluorophenyl)-1-{4-[(4-methylphenyl)sulfonyl]piperazinyl}prop-2-en-1-one] as the molecule, how does the IC50 read?
Its IC50 is under 100 nM.

With `O=C(c1cnc2ccccc2c1)N1CCN(C(c2ccccc2)c2ccccc2)CC1` [Compound C125, 4-(diphenylmethyl)piperazinyl 3-quinolyl ketone] as the molecule, how does the IC50 read?
Its IC50 is under 100 nM.

`O=C(c1cc2cc(F)ccc2[nH]1)N1CCN(C(c2ccccc2)c2ccccc2)CC1` [Compound C126, 4-(diphenylmethyl)piperazinyl 5-fluoroindol-2-yl ketone] was tested. Which IC50 did it give?
The IC50 was under 100 nM.

With `O=C(c1cccc(Cl)c1)N1CCN(C(=O)c2cc3cc(C(F)(F)F)ccc3[nH]2)CC1` [Compound C127, 4-[(3-chlorophenyl)carbonyl]piperazinyl 5-(trifluoromethyl)indol-2-yl ketone] as the molecule, how does the IC50 read?
The IC50 was under 100 nM.

`O=C(C#Cc1ccc(F)cc1)N1CCN(C(=O)c2ccc(F)cc2)CC1` [Compound C128, 3-(4-fluorophenyl)-1-{4-[(4-fluorophenyl)carbonyl]piperazinyl}prop-2-yn-1-one] was tested. Which IC50 did it give?
Its IC50 is under 100 nM.

For `O=C(C#Cc1cccc(Cl)c1)N1CCN(Cc2ccc(F)cc2)CC1` [Compound C129, 3-(3-chlorophenyl)-1-{4-[(4-fluorophenyl)methyl]piperazinyl}prop-2-yn-1-one], which IC50 is on record?
The IC50 was under 100 nM.

With `O=C(/C=C/c1ccc(Br)cc1)N1CCN(Cc2ccc(Cl)cc2F)CC1` [Compound C130, (2E)-3-(4-bromophenyl)-1-{4-[(4-chloro-2-fluorophenyl)methyl]piperazinyl}prop-2-en-1-one] as the molecule, how does the IC50 read?
The IC50 was under 100 nM.

For `O=C(/C=C/c1ccc(Br)cc1)N1CCN(Cc2ccc(F)cc2C(F)(F)F)CC1` [Compound C131, (2E)-3-(4-bromophenyl)-1-(4-{[4-fluoro-2-(trifluoromethyl)phenyl]methyl}piperazinyl)prop-2-en-1-one], which IC50 is on record?
Its IC50 is under 100 nM.

For `O=C(C#Cc1cccc(Cl)c1Cl)N1CCN(C(=O)c2ccc(C(F)(F)F)cc2)CC1` [Compound C132, 3-(2,3-dichlorophenyl)-1-(4-{[4-(trifluoromethyl)phenyl]carbonyl}piperazinyl)prop-2-yn-1-one], which IC50 is on record?
Its IC50 is under 100 nM.

For `O=C(c1ccc(C(F)(F)F)cc1)N1CCN(C(=O)c2cc3cc(C(F)(F)F)ccc3[nH]2)CC1` [Compound C133, 5-(trifluoromethyl)indol-2-yl 4-{[4-(trifluoromethyl)phenyl]carbonyl}piperazinyl ketone], which IC50 is on record?
The IC50 was under 100 nM.

`O=C(c1ccc(F)cc1)N1CCN(C(=O)c2cc3cc(Br)ccc3[nH]2)CC1` [Compound C135, 5-bromoindol-2-yl 4-[(4-fluorophenyl)carbonyl]piperazinyl ketone] was tested. Which IC50 did it give?
The IC50 was under 100 nM.

How did the IC50 turn out when `O=C(NCC1CCN(C(=O)/C=C/c2ccc(Br)cc2)CC1)c1ccc(F)cc1` [Compound C136, N-({1-[(2E)-3-(4-bromophenyl)prop-2-enoyl](4-piperidyl)}methyl)(4-fluorophenyl)carboxamide] was run?
The IC50 was under 100 nM.

`O=C(C#Cc1ccc(C(F)(F)F)cc1)N1CCN(Cc2ccc(Cl)cc2)CC1` [Compound C137, 1-{4-[(4-chlorophenyl)methyl]piperazinyl}-3-[4-(trifluoromethyl)phenyl]prop-2-yn-1-one] was tested. Which IC50 did it give?
The IC50 was under 100 nM.

For `O=C(/C=C/c1ccc(F)cc1)N1CCN(S(=O)(=O)c2cccc(Cl)c2)CC1` [Compound C138, (2E)-1-{4-[(3-chlorophenyl)sulfonyl]piperazinyl}-3-(4-fluorophenyl)prop-2-en-1-one], which IC50 is on record?
The IC50 was under 100 nM.

With `O=C(C#Cc1ccccc1)N1CCN(C(c2ccccc2)c2ccccc2)CC1` [Compound C139, 1-[4-(diphenylmethyl)piperazinyl]-3-phenylprop-2-yn-1-one] as the molecule, how does the IC50 read?
Its IC50 is under 100 nM.
